Here are results for 38 molecules from article PMC6792352, “Limited Chemical Structural Diversity Found to Modulate Thyroid Hormone Receptor in the Tox21 Chemical Library” (Environmental Health Perspectives, 2019).

Where a name gives a salt, the structure may show the parent alone. Read-outs that look alike come from different tables or passages of the source. No end group written: not given here.

One data set deals with GH3-TRE-Luc cell line. Conditions: read-out: AC50 (uM) modified / 1000, viability, 1 nM T3 present, 24 h.
A short description of another data set: in vitro. As to conditions: rat, gh3-tre-luc cells, AC50 (uM) modified / 1000.

As for `CC(=O)N1CCN(c2ccc(OC[C@@H]3CO[C@@](Cn4ccnc4)(c4ccc(Cl)cc4Cl)O3)cc2)CC1` (racemic) [Ketoconazole], the CC50 in the data set on GH3-TRE-Luc cell line (Tox21_110001=Tox21_300267) amounted to 23.7 µM.

`C#C[C@]1(O)CC[C@H]2[C@@H]3CCC4=CC(=O)CC[C@@H]4[C@H]3CC[C@@]21CC` (racemic) [dl-Norgestrel]: the CC50 in the data set on GH3-TRE-Luc cell line (Tox21_110001=Tox21_303623) came out at 64.5 µM.

For the molecule `CC(=C(CCO)SSCC1CCCO1)N(C=O)Cc1cnc(C)nc1N` (stereo in doubt) [Fursultiamine], the CC50 in the data set with GH3-TRE-Luc cell line (Tox21_110001=Tox21_112989) came to 34.7 µM.

Consider `c1cc(C(c2ccc(OCC3CO3)cc2)C(c2ccc(OCC3CO3)cc2)c2ccc(OCC3CO3)cc2)ccc1OCC1CO1` (stereo not shown) [1,1,2,2-(4,4',4'',4'''-Tetraglycidyloxyphenyl)ethane], for which the CC50 with GH3-TRE-Luc cell line (Tox21_110001=Tox21_202150) was 25.2 µM.

Regarding `BrC1CCC(Br)C(Br)CCC(Br)C(Br)CCC1Br` (stereo not shown) [1,2,5,6,9,10-Hexabromocyclododecane], the CC50 was determined as 17.5 µM with GH3-TRE-Luc cell line (Tox21_110001=Tox21_201402) and 38.8 µM in the data set on GH3-TRE-Luc cell line (Tox21_110001=Tox21_303176).

On to `Nc1ccccc1N` [1,2-Phenylenediamine], for which, in the data set on GH3-TRE-Luc cell line (Tox21_110001=Tox21_400014), the CC50 is 73.8 µM.

`c1cnc2c(c1)ccc1cccnc12` [1,10-Phenanthroline hydrochloride hydrate]: the CC50 in the data set with GH3-TRE-Luc cell line (Tox21_110001=Tox21_301286) stood at 7.25 µM.

Turning to `c1cnc2c(c1)ccc1cccnc12` [1,10-Phenanthroline], the CC50 with GH3-TRE-Luc cell line (Tox21_110001=Tox21_201998) turned out to be 46.4 µM; in the data set on GH3-TRE-Luc cell line (Tox21_110001=Tox21_303111), 66.2 µM.

Turning to `COc1ccc(C(=O)CC(=O)c2ccc(C(C)(C)C)cc2)cc1` [1-(4-tert-Butylphenyl)-3-(4-methoxyphenyl)propane-1,3-dione], the figures for the CC50 with GH3-TRE-Luc cell line (Tox21_110001=Tox21_111427) and in the data set on GH3-TRE-Luc cell line (Tox21_110001=Tox21_202796) were 24.3 µM and 71.9 µM, respectively.

As for `Nc1c(S(=O)(=O)O)cc(Br)c2c1C(=O)c1ccccc1C2=O` [1-Amino-4-bromo-9,10-dioxo-9,10-dihydroanthracene-2-sulfonic] [1-Amino-4-bromo-9,10-dioxo-9,10-dihydroanthracene-2-sulfonic acid], the CC50 in the data set with GH3-TRE-Luc cell line (Tox21_110001=Tox21_301752) was 60.1 µM.

Take `CCCC[n+]1ccc(C)cc1` [1-Butyl-4-methylpyridinium chloride]: the CC50 in the data set on GH3-TRE-Luc cell line (Tox21_110001=Tox21_202685) is 39.2 µM.

For `CCCCCCCCCCn1cc[n+](C)c1` [1-Decyl-3-methylimidazolium bromide], the CC50 with GH3-TRE-Luc cell line (Tox21_110001=Tox21_202622) turned out to be 18 µM.

On to `CCCCCCCCCCn1cc[n+](C)c1` [1-Decyl-3-methylimidazolium chloride], for which, in the data set with GH3-TRE-Luc cell line (Tox21_110001=Tox21_202623), the CC50 was found to be 22.3 µM.

In the case of `CCCCCCCCCCn1cc[n+](C)c1` [1-Decyl-3-methylimidazolium hexafluorophosphate], the CC50 in the data set with GH3-TRE-Luc cell line (Tox21_110001=Tox21_202624) is 11.4 µM.

In the case of `CCCCCCCCCCn1cc[n+](C)c1` [1-Decyl-3-methylimidazolium tetrafluoroborate], the CC50 in the data set on GH3-TRE-Luc cell line (Tox21_110001=Tox21_200592) was found to be 13.1 µM.

For `CCCCCCCCCCn1cc[n+](C)c1` [1-Decyl-3-methylimidazolium trifluoromethanesulfonate], in the data set on GH3-TRE-Luc cell line (Tox21_110001=Tox21_200593), the CC50 worked out at 6.68 µM.

Turning to `CCCCCCCCCCCCn1cc[n+](C)c1` [1-Dodecyl-3-methylimidazolium bromide], the CC50 in the data set on GH3-TRE-Luc cell line (Tox21_110001=Tox21_202628) came to 80.1 µM.

In the case of `CCCCCCCCCCCCn1cc[n+](C)c1` [1-Dodecyl-3-methylimidazolium hexafluorophosphate], the CC50 with GH3-TRE-Luc cell line (Tox21_110001=Tox21_200596) is 4.11 µM.

For `CCCCCCCCCCCCn1cc[n+](C)c1` [1-Dodecyl-3-methylimidazolium tetrafluoroborate], the CC50 in the data set with GH3-TRE-Luc cell line (Tox21_110001=Tox21_202629) was 3.46 µM.

With `CCCCCCCCCCCCn1cc[n+](C)c1` [1-Dodecyl-3-methylimidazolium trifluoromethanesulfonate], in the data set with GH3-TRE-Luc cell line (Tox21_110001=Tox21_202630), the CC50 was found to be 3.74 µM.

On to `CC[n+]1ccccc1` [1-Ethylpyridinium bromide], for which the CC50 with GH3-TRE-Luc cell line (Tox21_110001=Tox21_202695) turned out to be 32.7 µM.

As to `CCCCCCCCCCCCCCCCn1cc[n+](C)c1` [1-Hexadecyl-3-methylimidazolium chloride], the CC50 in the data set with GH3-TRE-Luc cell line (Tox21_110001=Tox21_200600) was 21.4 µM.

For `CCCCCCCCCCCCCCCCn1cc[n+](C)c1` [1-Hexadecyl-3-methylimidazolium tetrafluoroborate], the CC50 with GH3-TRE-Luc cell line (Tox21_110001=Tox21_202647) stood at 12.9 µM.

With `CCCCCCCC[n+]1ccn(C)c1` [1-Methyl-3-octylimidazolium bromide], the CC50 in the data set with GH3-TRE-Luc cell line (Tox21_110001=Tox21_202653) worked out at 31.6 µM.

As for `CCCCCCCC[n+]1ccn(C)c1` [1-Methyl-3-octylimidazolium tetrafluoroborate], the CC50 with GH3-TRE-Luc cell line (Tox21_110001=Tox21_200695) was 44.3 µM.

As to `CCCCCCCC[n+]1ccn(C)c1` [1-Methyl-3-octylimidazolium trifluoromethanesulfonate], the CC50 with GH3-TRE-Luc cell line (Tox21_110001=Tox21_200708) worked out at 75.9 µM.

Regarding `CCCCCCCCCCCCCCn1cc[n+](C)c1` [1-Methyl-3-tetradecylimidazolium chloride], the CC50 in the data set on GH3-TRE-Luc cell line (Tox21_110001=Tox21_202660) is 8.43 µM.

As for `O=C(CCl)c1ccc(Cl)cc1Cl` [2,2',4'-Trichloroacetophenone], the CC50 was 2.14 µM in the data set with GH3-TRE-Luc cell line (Tox21_110001=Tox21_113246) and 4.54 µM in the data set on GH3-TRE-Luc cell line (Tox21_110001=Tox21_113461).

With `COc1ccc(N)cc1N` [2,4-Diaminoanisole sulfate hydrate], in the data set with GH3-TRE-Luc cell line (Tox21_110001=Tox21_302700), the CC50 came to 48.9 µM.

Consider `Cc1ncc[nH]1` [2-Methylimidazole], for which the CC50 with GH3-TRE-Luc cell line (Tox21_110001=Tox21_111136) is 0.0572 µM.

Consider `Nc1ccc(-c2ccc(N)c(N)c2)cc1N` [3,3'-Diaminobenzidine], for which the CC50 in the data set on GH3-TRE-Luc cell line (Tox21_110001=Tox21_302170) came out at 93.2 µM.

In the case of `CC1CC(OC(=O)c2ccccc2O)CC(C)(C)C1` (stereo not shown) [3,3,5-Trimethylcyclohexyl salicylate], the CC50 is 42.4 µM in the data set with GH3-TRE-Luc cell line (Tox21_110001=Tox21_111174) and 72.7 µM in the data set on GH3-TRE-Luc cell line (Tox21_110001=Tox21_303082).

With `CCn1c2ccccc2c2cc(N)ccc21` [3-Amino-9-ethylcarbazole], in the data set with GH3-TRE-Luc cell line (Tox21_110001=Tox21_303548), the CC50 worked out at 93.2 µM.

As for `C=COCCOCCOC=C` [{2-[2-(Ethenyloxy)ethoxy]ethoxy}ethene], in the data set “in vitro”, the CC50 at 24 h is above 90 µM.

`CC(=O)Nc1ccn(C2COC(COC(=O)c3ccccc3)O2)c(=O)n1` (stereo not shown) [{4-[4-(Acetylamino)-2-oxopyrimidin-1(2H)-yl]-1,3-dioxolan-2-yl}methyl benzoate] registered a CC50 at 24 h in the data set “in vitro” above 50 µM.

`C=COCC1CCC(CO)CC1` (stereo not shown) [{4-[(Ethenyloxy)methyl]cyclohexyl}methanol] registered a CC50 at 24 h in the data set “in vitro” above 90 µM.

On to `Cc1cc(SCc2sc(-c3ccc(C(F)(F)F)c(F)c3)nc2C)ccc1OCC(=O)O` [{4-[({2-[3-Fluoro-4-(trifluoromethyl)phenyl]-4-methyl-1,3-thiazol-5-yl}methyl)sulfanyl]-2-methylphenoxy}acetic acid], for which the CC50 at 24 h in the data set “in vitro” worked out at 64.8 µM.

With RKDVY [Thymopentin], the CC50 at 24 h in the data set “in vitro” is above 50 µM.
